In ChEMBL document CHEMBL1143942, “Deoxygenated phosphorothioate inositol phosphate analogs: synthesis, phosphatase stability, and binding affinity” (Bioorg Med Chem, 2008) one finds Kd, Activity and Stability data, which are given here for two compounds.

pKd: −log10 of the molar value. The source made the active and inactive calls. The rule behind the calls is not given here.

Data set [1] in a line: Chemical stability in presence of alkaline phosphatase. The data set is classed as physicochemical.
The nature of data set [2]: Inhibition of alkaline phosphatase.
Data set [3] can be described thus: Displacement of [3H]Ins(1,4,5)P3 from Ins(1,4,5)P3 receptor in bovine adrenal cortex. Type of data set: tissue-based, Bos taurus. A general note: Loss of bound radioactivity is the signal in a displacement assay; it reports binding, not function.

Regarding `O=P(O)(O)O[C@@H]1[C@H](O)[C@H](O)[C@@H](OP(=O)(O)O)[C@H](OP(=O)(O)O)[C@H]1O` [INS(1,4,5)P3], the pKd (as a rule, the negative decadic logarithm of the Kd, by convention in mol/L) in data set [1] is 7.27.

For `O[C@@H]1[C@@H](OP(O)(O)=S)[C@H](OP(O)(O)=S)CC[C@H]1OP(O)(O)=S`, the outcome in data set [2] was inactive. For the same compound, the Stability result in data set [1] (isolated protein) is recorded as “Stable”. The same compound showed a pKd in data set [3] of 6.09.
